Measured values: US20240382474A1, “ENPP1 MODULATORS AND USES THEREOF” (Vir Biotechnology, Inc., priority 2021, published 2024)

Each compound was assayed against T1, human ENPP1 enzymatic domain (Homo sapiens, UniProt P22413) (assay: ENPP1 Enzymatic Inhibition Assay (2′3′-cGAMP substrate, AMP-Glo luminescence)). Conditions: 1 nM ENPP1, 20 uM 2′3′-cGAMP, 30 minutes at 37° C.
T1 construct: recombinant protein containing the human ENPP1 enzymatic domain; purchased Viva Biotech
T1 sequence (P22413 191-591 limits assumed): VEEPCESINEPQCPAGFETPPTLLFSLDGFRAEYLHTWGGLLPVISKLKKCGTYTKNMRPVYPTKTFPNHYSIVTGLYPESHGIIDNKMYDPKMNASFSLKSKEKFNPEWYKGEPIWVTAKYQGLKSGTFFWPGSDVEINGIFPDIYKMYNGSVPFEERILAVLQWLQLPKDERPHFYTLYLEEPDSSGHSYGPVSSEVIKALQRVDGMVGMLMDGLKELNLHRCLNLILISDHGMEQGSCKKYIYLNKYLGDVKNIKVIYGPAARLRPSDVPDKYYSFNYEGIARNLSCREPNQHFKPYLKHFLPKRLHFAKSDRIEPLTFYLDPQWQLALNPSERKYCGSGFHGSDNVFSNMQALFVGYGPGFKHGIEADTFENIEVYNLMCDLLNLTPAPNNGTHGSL
Type: biochemical
Protocol: The inhibition of ENPP1's phosphodiesterase activity were tested in a purified enzymatic assay using 2′3′-cyclic GAMP as a substrate which allowed for the release of cleaved AMP to be monitored using a luminescent assay.
Putative inhibitors were diluted in assay buffer (50 mM Tris pH 8.0, 250 mM NaCl, 0.5 mM CaCl2), 1 uM ZnCl2, 1% DMSO) and pre-incubated for 15 minutes at 37° C. with recombinant protein containing the human ENPP1 enzymatic domain (Viva Biotech). The enzymatic reaction was initiated upon addition of the 2′3′-cGAMP substrate. The final reaction concentrations were 1 nM ENPP1 and 20 uM 2′3′-cGAMP substrate in a 25 uL volume. Inhibitor concentrations ranged from 10 uM to 0.056 nM. The reaction was incubated for 30 minutes at 37° C.
After reacting for 30 minutes, the amount of AMP generated from the cleavage of 2′3′-cGAMP was determined using the Promega AMP-Glo method according to the manufacturer's protocol. First, AMP-Glo reagent 1 was added and incubated with the reaction mix for 1 hour at room temperature. Second, AMP Detection solution was added and the mixture was incubated for an additional hour. The luminescence of the mixture was read on a Perkin Elmer Ensight plate reader.
The maximum and minimum levels of ENPP1 activity were established using no inhibitor and no enzyme controls, respectively. The activity observed using ENPP1 inhibitors was quantified as the percent of activity relative to these controls. IC50 values were calculated using CDD Vault by fitting a sigmoidal variable slope nonlinear regression model to the data.

IC50 [nM] | SMILES
< 10 | CN[S@](=N)(=O)c1ccc(Oc2ccnc3cc(OC)ccc23)cc1 [Compound 2, (S)-4-((7-methoxyquinolin-4-yl)oxy)-N-methylbenzenesulfonimidamide]
10 to 100 | COc1ccc2c(Oc3ccc([S@](=N)(=O)NCCO)cc3)ccnc2c1 [Compound 3, (R)-N-(2-hydroxyethyl)-4-((7-methoxyquinolin-4-yl)oxy)benzenesulfonimidamide]
< 10 | COc1ccc2c(Oc3ccc([S@@](=N)(=O)NCCO)cc3)ccnc2c1 [Compound 4, (S)-N-(2-hydroxyethyl)-4-((7-methoxyquinolin-4-yl)oxy)benzenesulfonimidamide]
10 to 100 | COc1ccc2c(Oc3ccc([S@](=N)(=O)N[C@@H](C)CO)cc3)ccnc2c1 [Compound 5, (R)-N-((S)-1-hydroxypropan-2-yl)-4-((7-methoxyquinolin-4-yl)oxy)benzenesulfonimidamide]
< 10 | COc1ccc2c(Oc3ccc([S@@](=N)(=O)N[C@@H](C)CO)cc3)ccnc2c1 [Compound 6, (S)-N-((S)-1-hydroxypropan-2-yl)-4-((7-methoxyquinolin-4-yl)oxy)benzenesulfonimidamide]
10 to 100 | COc1ccc2c(Oc3ccc([S@](=N)(=O)NC[C@H](C)O)cc3)ccnc2c1 [Compound 7, (R)-N-((S)-2-hydroxypropyl)-4-((7-methoxyquinolin-4-yl)oxy)benzenesulfonimidamide]
< 10 | COc1ccc2c(Oc3ccc([S@@](=N)(=O)NC[C@H](C)O)cc3)ccnc2c1 [Compound 8, (S)-N-((S)-2-hydroxypropyl)-4-((7-methoxyquinolin-4-yl)oxy)benzenesulfonimidamide]
10 to 100 | COc1ccc2c(Oc3ccc([S@](=N)(=O)NCC(C)(C)O)cc3)ccnc2c1 [Compound 9, (R)-N-(2-hydroxy-2-methylpropyl)-4-((7-methoxyquinolin-4-yl)oxy)benzenesulfonimidamide]
< 10 | COc1ccc2c(Oc3ccc([S@@](=N)(=O)NCC(C)(C)O)cc3)ccnc2c1 [Compound 10, (S)-N-(2-hydroxy-2-methylpropyl)-4-((7-methoxyquinolin-4-yl)oxy)benzenesulfonimidamide]
10 to 100 | COc1ccc2c(Oc3ccc([S@](=N)(=O)N[C@H](C)CO)cc3)ccnc2c1 [Compound 11, (R)-N-((R)-1-hydroxypropan-2-yl)-4-((7-methoxyquinolin-4-yl)oxy)benzenesulfonimidamide]
< 10 | COc1ccc2c(Oc3ccc([S@@](=N)(=O)N[C@H](C)CO)cc3)ccnc2c1 [Compound 12, (S)-N-((R)-1-hydroxypropan-2-yl)-4-((7-methoxyquinolin-4-yl)oxy)benzenesulfonimidamide]
> 100 | COc1ccc2c(Oc3ccc([S@](=N)(=O)NCC4CC4)cc3)ccnc2c1 [Compound 13, (R)-N-(cyclopropylmethyl)-4-((7-methoxyquinolin-4-yl)oxy)benzenesulfonimidamide]
< 10 | COc1ccc2c(Oc3ccc([S@@](=N)(=O)NCC4CC4)cc3)ccnc2c1 [Compound 14, (S)-N-(cyclopropylmethyl)-4-((7-methoxyquinolin-4-yl)oxy)benzenesulfonimidamide]
10 to 100 | CN[S@@](=N)(=O)c1ccc(Nc2ncnc3cc(OC)ccc23)cc1 [Compound 15, (R)-4-((7-methoxyquinazolin-4-yl)amino)-N-methylbenzenesulfonimidamide]
< 10 | CN[S@](=N)(=O)c1ccc(Nc2ncnc3cc(OC)ccc23)cc1 [Compound 16, (S)-4-((7-methoxyquinazolin-4-yl)amino)-N-methylbenzenesulfonimidamide]
< 10 | CN[S@@](=N)(=O)c1ccc(Nc2ccnc3cc(OC)ccc23)cc1 [Compound 17, (R)-4-((7-methoxyquinolin-4-yl)amino)-N-methylbenzenesulfonimidamide]
< 10 | CN[S@](=N)(=O)c1ccc(Nc2ccnc3cc(OC)ccc23)cc1 [Compound 18, (S)-4-((7-methoxyquinolin-4-yl)amino)-N-methylbenzenesulfonimidamide]

IC50 [nM] | SMILES
< 10 | COc1ccc2c(Nc3ccc([S@](=N)(=O)NCC4CC4)cc3)ccnc2c1 [Compound 19, (R)-N-(cyclopropylmethyl)-4-((7-methoxyquinolin-4-yl)amino)benzenesulfonimidamide]
< 10 | COc1ccc2c(Nc3ccc([S@@](=N)(=O)NCC4CC4)cc3)ccnc2c1 [Compound 20, (S)-N-(cyclopropylmethyl)-4-((7-methoxyquinolin-4-yl)amino)benzenesulfonimidamide]
10 to 100 | COc1ccc2c(Nc3ccc([S@@](=N)(=O)NCC4CC4)cc3)c(C#N)cnc2c1 [Compound 21, (S)-4-((3-cyano-7-methoxyquinolin-4-yl)amino)-N-(cyclopropylmethyl)benzenesulfonimidamide]
< 10 | N=[S@](=O)(NCC1CC1)c1ccc(Nc2ccnc3cc(OC(F)F)ccc23)cc1 [Compound 22, (S)-N-(cyclopropylmethyl)-4-((7-(difluoromethoxy)quinolin-4-yl)amino)benzenesulfonimidamide]
< 10 | COc1ccc2c(Oc3ccc([S@](=N)(=O)NC[C@@H](C)O)cc3)ccnc2c1 [Compound 25, (R)-N-((R)-2-hydroxypropyl)-4-((7-methoxyquinolin-4-yl)oxy)benzenesulfonimidamide]
10 to 100 | COc1ccc2c(Oc3ccc([S@](=N)(=O)N[C@H](C)c4ccnn4C)cc3)ccnc2c1 [Compound 27, (R)-4-((7-methoxyquinolin-4-yl)oxy)-N-((R)-1-(1-methyl-1H-pyrazol-5-yl)ethyl)benzenesulfonimidamide]
< 10 | COc1ccc2c(Oc3ccc([S@@](=N)(=O)N[C@H](C)c4ccnn4C)cc3)ccnc2c1 [Compound 28, (S)-4-((7-methoxyquinolin-4-yl)oxy)-N-((R)-1-(1-methyl-1 H-pyrazol-5-yl)ethyl)benzenesulfonimidamide]
< 10 | COc1ccc2c(Oc3ccc([S@](=N)(=O)NC(C)c4ccn(C)n4)cc3)ccnc2c1 (stereo partly drawn) [Compound 29, (R)-4-((7-methoxyquinolin-4-yl)oxy)-N-(1-(1-methyl-1H-pyrazol-3-yl)ethyl)benzenesulfonimidamide]
< 10 | COc1ccc2c(Oc3ccc([S@@](=N)(=O)NC(C)c4ccn(C)n4)cc3)ccnc2c1 (stereo partly drawn) [Compound 30, (S)-4-((7-methoxyquinolin-4-yl)oxy)-N-(1-(1-methyl-1H-pyrazol-3-yl)ethyl)benzenesulfonimidamide]
10 to 100 | COc1ccc2c(Oc3ccc([S@](=N)(=O)NC[C@@H](O)CO)cc3)ccnc2c1 [Compound 31, (R)-N-((R)-2,3-dihydroxypropyl)-4-((7-methoxyquinolin-4-yl)oxy)benzenesulfonimidamide]
< 10 | COc1ccc2c(Oc3ccc([S@@](=N)(=O)NC[C@@H](O)CO)cc3)ccnc2c1 [Compound 32, (S)-N-((R)-2,3-dihydroxypropyl)-4-((7-methoxyquinolin-4-yl)oxy)benzenesulfonimidamide]
10 to 100 | COc1ccc2c(Oc3ccc([S@](=N)(=O)NC[C@H](O)CO)cc3)ccnc2c1 [Compound 33, (R)-N-((S)-2,3-dihydroxypropyl)-4-((7-methoxyquinolin-4-yl)oxy)benzenesulfonimidamide]
< 10 | COc1ccc2c(Oc3ccc([S@@](=N)(=O)NC[C@H](O)CO)cc3)ccnc2c1 [Compound 34, (S)-N-((S)-2,3-dihydroxypropyl)-4-((7-methoxyquinolin-4-yl)oxy)benzenesulfonimidamide]
< 10 | COc1ccc2c(Nc3ccc([S@](=N)(=O)N[C@H](C)CO)cc3)ccnc2c1 [Compound 35, (R)-N-((R)-1-hydroxypropan-2-yl)-4-((7-methoxyquinolin-4-yl)amino)benzenesulfonimidamide]
< 10 | COc1ccc2c(Nc3ccc([S@@](=N)(=O)N[C@H](C)CO)cc3)ccnc2c1 [Compound 36, (S)-N-((R)-1-hydroxypropan-2-yl)-4-((7-methoxyquinolin-4-yl)amino)benzenesulfonimidamide]
< 10 | COc1ccc2c(Nc3ccc([S@](=N)(=O)NC[C@H](C)O)cc3)ccnc2c1 [Compound 37, (R)-N-((S)-2-hydroxypropyl)-4-((7-methoxyquinolin-4-yl)amino)benzenesulfonimidamide]
< 10 | COc1ccc2c(Nc3ccc([S@@](=N)(=O)NC[C@H](C)O)cc3)ccnc2c1 [Compound 38, (S)-N-((S)-2-hydroxypropyl)-4-((7-methoxyquinolin-4-yl)amino)benzenesulfonimidamide]
